Measurements published in ChEMBL document CHEMBL4819018, “Variously substituted 2-oxopyridine derivatives: Extending the structure-activity relationships for allosteric modulation of the cannabinoid CB2 receptor” (Eur J Med Chem, 2021).
Calls of active or inactive are those of the source. The rule behind the calls is not given here.

Legend:
[1] = target: T1, Cannabinoid receptor 2 (Homo sapiens, UniProt P34972); test: Positive allosteric modulator activity at human CB2R expressed in CHO-K1 cell membrane assessed as increase in [3H]CP55940 binding at 100 nM measured after 60 mins by liquid scintillation spectrometry; assay type: cell membranes
[2] = target: T1, Cannabinoid receptor 2; test: Inhibition of [35S]GTPgammaS binding at human CB2R expressed in CHO-K1 cell membrane at 0.001 to 10 uM measured after 90 mins by liquid scintillation counting analysis; assay type: cell membranes; details: cho-k1, 1.5 h, dose 0.001-10 µM
[3] = target: T1, Cannabinoid receptor 2; test: Stimulation of [35S]GTPgammaS binding at human CB2R expressed in CHO-K1 cell membrane at 0.001 to 10 uM measured after 90 mins by liquid scintillation counting analysis; assay type: cell membranes; details: cho-k1, 1.5 h, dose 0.001-10 µM
[4] = target: T1, Cannabinoid receptor 2; test: Positive allosteric modulator activity at human CB2R expressed in CHO-K1 cells assessed as potentiation of CP55940-stimulated inhibition of forskolin-induced cAMP accumulation measured after 90 mins by HitHunter cAMP assay; assay type: functional, cell-based
[5] = target: T1, Cannabinoid receptor 2; test: Positive allosteric modulator activity at human CB2R expressed in CHO-K1 cell membrane assessed as increase in [3H]CP55940 binding at 0.001 to 1 microM measured after 60 mins by liquid scintillation spectrometry; assay type: cell membranes; details: dose 0.001-1 µM
[6] = target: T1, Cannabinoid receptor 2; test: Positive allosteric modulator activity at human CB2R expressed in CHO-K1 cell membrane assessed as increase in [3H]CP55940 binding at 10 uM measured after 60 mins by liquid scintillation spectrometry; assay type: cell membranes
[7] = target: T1, Cannabinoid receptor 2; test: Positive allosteric modulator activity at human CB2R expressed in CHO-K1 cells assessed as potentiation of CP55940-stimulated beta-arrestin2 recruitment measured after 90 mins by PathHunter assay relative to control; assay type: cell-based; details: filed as positive allosteric modulator
[8] = target: T1, Cannabinoid receptor 2; test: Positive allosteric modulator activity at human CB2R expressed in CHO-K1 cells assessed as potentiation of CP55940-stimulated beta-arrestin2 recruitment measured after 90 mins by PathHunter assay; assay type: cell-based
[9] = target: T1, Cannabinoid receptor 2; test: Positive allosteric modulator activity at human CB2R expressed in CHO-K1 cells assessed as potentiation of CP55940-stimulated inhibition of forskolin-induced cAMP accumulation measured after 90 mins by HitHunter cAMP assay relative to control; assay type: functional, cell-based; details: filed as positive allosteric modulator
[10] = target: Cannabinoid receptor 1 (Homo sapiens, UniProt P21554); test: Modulation of human CB1R expressed in CHO-K1 cell membrane assessed as effect on [3H]CP55940 binding at 0.001 to 10 uM measured after 60 mins by liquid scintillation spectrometry; assay type: cell membranes; details: cho-k1, 1 h, dose 0.001-10 µM
[11] = target: T1, Cannabinoid receptor 2; test: Positive allosteric modulator activity at human CB2R expressed in CHO-K1 cell membrane assessed as CP55940 Emax for [35S]GTPgammaS binding at 1 nM measured after 90 mins by liquid scintillation counting analysis (reference value: 57 +/-1.5%); assay type: functional, cell membranes; details: filed as positive allosteric modulator
[12] = target: T1, Cannabinoid receptor 2; test: Positive allosteric modulator activity at human CB2R expressed in CHO-K1 cell membrane assessed as CP55940 Emax for [35S]GTPgammaS binding at 100 nM measured after 90 mins by liquid scintillation counting analysis (reference value: 57 +/-1.5%); assay type: functional, cell membranes; details: filed as positive allosteric modulator
[13] = target: T1, Cannabinoid receptor 2; test: Inverse agonist activity at human CB2R expressed in CHO-K1 cell membrane assessed as decrease in [35S]GTPgammaS binding at 1 to 10 uM measured after 90 mins by liquid scintillation counting analysis; assay type: cell membranes; details: cho-k1, 1.5 h, dose 1-10 µM
[14] = filed as positive allosteric modulator

T1 sequence (P34972 whole entry): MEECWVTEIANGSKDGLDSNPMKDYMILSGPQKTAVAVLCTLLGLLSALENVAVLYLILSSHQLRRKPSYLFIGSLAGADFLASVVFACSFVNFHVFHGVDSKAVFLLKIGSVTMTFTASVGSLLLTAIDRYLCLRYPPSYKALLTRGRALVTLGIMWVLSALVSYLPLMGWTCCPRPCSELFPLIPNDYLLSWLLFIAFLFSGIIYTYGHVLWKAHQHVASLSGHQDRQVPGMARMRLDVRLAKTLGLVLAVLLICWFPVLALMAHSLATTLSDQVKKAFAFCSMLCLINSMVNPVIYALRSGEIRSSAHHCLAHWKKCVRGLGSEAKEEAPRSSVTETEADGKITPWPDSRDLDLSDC
Chain of Cannabinoid receptor 1 (P21554 whole entry): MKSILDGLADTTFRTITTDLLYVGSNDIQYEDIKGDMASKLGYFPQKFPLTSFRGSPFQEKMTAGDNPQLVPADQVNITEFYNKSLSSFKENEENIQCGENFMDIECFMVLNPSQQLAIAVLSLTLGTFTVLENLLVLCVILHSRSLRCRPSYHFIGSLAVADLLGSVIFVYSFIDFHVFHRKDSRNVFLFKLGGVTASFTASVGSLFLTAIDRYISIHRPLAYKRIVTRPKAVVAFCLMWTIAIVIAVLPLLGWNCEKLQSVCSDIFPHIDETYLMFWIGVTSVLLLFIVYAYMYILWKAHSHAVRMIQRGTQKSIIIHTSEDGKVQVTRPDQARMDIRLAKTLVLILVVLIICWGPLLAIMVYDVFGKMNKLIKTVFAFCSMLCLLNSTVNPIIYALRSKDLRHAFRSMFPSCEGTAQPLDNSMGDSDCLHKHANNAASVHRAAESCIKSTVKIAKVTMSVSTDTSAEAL

Cc1c(Br)cn(Cc2cccc(F)c2)c(=O)c1NC(=O)C1CCCCCC1
Activity [1]: inactive

Cc1c(Br)cn(Cc2ccc(F)cc2)c(=O)c1NC(=O)OC1CCCCCC1
Activity [1]: inactive

CCCCCn1cc(Br)c(C)c(NC(=O)C2CCCCCC2)c1=O
Activity [1]: inactive

Cc1c(Br)cn(Cc2ccccc2Cl)c(=O)c1NC(=O)C1CCCCCC1
inhibition (INH) [2]: Not Active
Activity [3]: Not Active
EC50 [4]: 15 nM
Activity [1, 14]: Active
Activity [5, 14]: 40%
Activity [6]: inactive
Emax [7]: 75%
EC50 [8]: 150 nM
Emax [9]: 101%
Activity [10]: Not Active
Emax [11]: 73%
Emax [12]: 67%

Cc1c(Br)cn(Cc2ccc(I)cc2)c(=O)c1NC(=O)C1CCCCCC1
Activity [1]: inactive

Cc1c(Br)cn(Cc2ccc(Br)cc2)c(=O)c1NC(=O)C1CCCCCC1
Activity [1, 14]: Active
Activity [6]: inactive

Cc1c(Br)cn(Cc2ccc(F)cc2)c(=O)c1NC(=O)C1CCC(C)CC1 (centres undefined)
Activity [1]: inactive

Cc1c(Br)cn(Cc2ccc(F)cc2)c(=O)c1[N+](=O)[O-]
Activity [1]: inactive

Cc1c(Br)cn(Cc2ccc(F)cc2)c(=O)c1NC(=O)NC1CCCCCC1
Activity [1]: inactive

Cc1c(Br)cn(Cc2ccc(Cl)cc2)c(=O)c1NC(=O)C1CCCCCC1
Activity [1]: inactive

Cc1c(Br)cn(Cc2ccccc2)c(=O)c1NC(=O)C1CCCCCC1
Activity [1]: inactive

CCCCCC(=O)Nc1c(C)c(Br)cn(Cc2ccc(F)cc2)c1=O
Activity [1]: inactive

Cc1c(Br)cn(Cc2ccc(F)cc2)c(=O)c1NC(=O)c1ccccc1
Activity [1]: inactive

Cc1c(Br)cn(Cc2ccccc2F)c(=O)c1NC(=O)C1CCCCCC1
EC50 [4]: > 10000 nM
Activity [1, 14]: Active
Activity [5]: 20%
Activity [6]: inactive
Activity [13]: Active
Emax [7]: 51%
EC50 [8]: > 10000 nM
Emax [9]: 120%
Activity [10]: Not Active
Emax [11]: 51%
Emax [12]: 72%

Cc1c(Br)cn(CCCCCO)c(=O)c1NC(=O)C1CCCCCC1
Activity [1]: inactive

Cc1c(Br)cn(Cc2ccc(F)cc2)c(=O)c1NC(=O)C1CCCCCC1
EC50 [4]: 3.8 nM
Emax [7]: 79%
EC50 [8]: 17 nM
Emax [9]: 91%

Cc1c(Br)cn(Cc2ccc(F)cc2)c(=O)c1N
Activity [1]: inactive

CC(=O)Nc1c(C)c(Br)cn(Cc2ccc(F)cc2)c1=O
Activity [1]: inactive

Cc1c(Br)cn(CCN2CCOCC2)c(=O)c1NC(=O)C1CCCCCC1
Activity [1]: inactive
